Reference: US6013795A, “Alpha-branched fluoroalkylcarbonyl fluorides and their derivatives” (3M Innovative Properties Company, priority 1996, dated 2000)

test: surface tension of aqueous surfactant solutions and critical micelle concentration (K-12 Processor Tensiometer); format: physicochemical; conditions: carboxylate salts, deionized water; Table 5
Excerpt: Critical Micelle Concentration (CMC): The critical micelle concentration is defined as the concentration at which further surface tension is no longer lowered with increasing levels of surfactant. […] Surface tension is then plotted vs. log concentration and the data points are connected. The resulting curve has a nearly horizontal flat portion at concentrations above the CMC and has a negative steep slope at concentrations below the CMC. The CMC is defined as the lowest surfactant concentration in the horizontal flat portion of the curve.
(§1) Then the critical micelle concentration (CMC) was determined for each surfactant.
as §1

Compound | CMC [ppm] | Surf. Tens. at the CMC [dynes/cm]
O=C(O)C(F)(C(F)(F)F)C(F)(F)C(F)(F)C(F)(F)C(F)(F)C(F)(F)F (stereo not drawn) [Example M15, C5 F11 CF(CF3)COO^- H4 N^+] | > 10000 | 22.1
O=C(O)C(F)(C(F)(F)F)C(F)(F)C(F)(F)C(F)(F)C(F)(F)C(F)(F)C(F)(F)F (stereo not drawn) [Example M16, C6 F13 CF(CF3)COO^- H4 N^+] | 8000 | 17.9
O=C(O)C(F)(C(F)(F)F)C(F)(F)C(F)(F)C(F)(F)C(F)(F)C(F)(F)C(F)(F)C(F)(F)C(F)(F)F (stereo not drawn) [Example M17, C8 F17 CF(CF3)COO^- H4 N^+] | 2300 | 14.7
O=C(O)C(F)(C(F)(F)F)C(F)(F)C(F)(F)C(F)(F)C(F)(F)C(F)(F)C(F)(F)C(F)(F)C(F)(F)C(F)(F)C(F)(F)F (stereo not drawn) [Example M18, C10 F21 CF(CF3)COO^- H4 N^+] | 600 | 14.8
O=C(O)C(F)(C(F)(F)F)C(F)(F)C(F)(F)C(F)(F)C(F)(F)C(F)(F)C(F)(F)C(F)(F)F (stereo not drawn) [Example M20, C7 F15 CF(CF3)COO^- H3 N^+ C2 H4 OH] | 500 | 15.0
O=C(O)C(F)(C(F)(F)F)C(F)(F)C(F)(F)C(F)(F)C(F)(F)C(F)(F)F (stereo not drawn) [Example M21, C5 F11 CF(CF3)COO^- K^+] | > 10000 | 22.5
O=C(O)C(F)(C(F)(F)F)C(F)(F)C(F)(F)C(F)(F)C(F)(F)C(F)(F)C(F)(F)F (stereo not drawn) [Example M22, C6 F13 CF(CF3)COO^- K^+] | 10000 | 17.5
O=C(O)C(F)(C(F)(F)F)C(F)(F)C(F)(F)C(F)(F)C(F)(F)C(F)(F)C(F)(F)C(F)(F)F (stereo not drawn) [Example M23, C7 F15 CF(CF3)COO^- K^+] | 2500 | 15.0

same assay, conditions: deionized water; Table 3

Compound | CMC [ppm] | Surf. Tens. at the CMC [dynes/cm] | solubility remark
C[N+](C)([O-])CCCNC(=O)C(F)(C(F)(F)F)C(F)(F)C(F)(F)C(F)(F)C(F)(F)C(F)(F)C(F)(F)C(F)(F)F (stereo not drawn) [Example E1, C7 F15 CF(CF3)CONH(CH2)3 N^+ (CH3)2 O^-] | 20 | 16.3 | –
C[N+](C)([O-])CCCNC(=O)C(F)(C(F)(F)F)C(F)(F)C(F)(F)C(F)(F)C(F)(F)C(F)(F)F (stereo not drawn) [Example E2, C5 F11 CF(CF3)CONH(CH2)3 N^+ (CH3)2 O^-] | 500 | 17.5 | –
C[N+](C)([O-])CCCNC(=O)C(F)(C(F)(F)F)C(F)(F)C(F)(F)C(F)(F)C(F)(F)C(F)(F)C(F)(F)F (stereo not drawn) [Example E3, C6 F13 CF(CF3)CONH(CH2)3 N^+ (CH3)2 O^-] | 100 | 16.6 | –
C[N+](C)([O-])CCCNC(=O)C(F)(C(F)(F)F)C(F)(F)C(F)(F)C(F)(F)C(F)(F)C(F)(F)C(F)(F)C(F)(F)C(F)(F)F (stereo not drawn) [Example E4, C8 F17 CF(CF3)CONH(CH2)3 N^+ (CH3)2 O^-] | 20 | 16.5 | –
C[N+](C)([O-])CCCNC(=O)C(F)(C(F)(F)F)C(F)(F)C(F)(F)C(F)(F)C(F)(F)C(F)(F)C(F)(F)C(F)(F)C(F)(F)C(F)(F)C(F)(F)F (stereo not drawn) [Example E5, C10 F21 CF(CF3)CONH(CH2)3 N^+ (CH3)2 O^-] | 500 | 17.1 | –
C[N+](C)([O-])CCCNC(=O)C(F)(C(F)(F)C(F)(F)C(F)(F)F)C(F)(F)C(F)(F)C(F)(F)C(F)(F)C(F)(F)C(F)(F)C(F)(F)F (stereo not drawn) [Example E7, C7 F15 CF(C3 F7)CONH(CH2)3 N^+ (CH3)2 O^-] | – | – | low solub.
C[N+](C)([O-])CCCN(CCO)C(=O)C(F)(C(F)(F)F)C(F)(F)C(F)(F)C(F)(F)C(F)(F)C(F)(F)C(F)(F)C(F)(F)F (stereo not drawn) [Example E8, C7 F15 CF(CF3)CON(C2 H4 OH)(CH2)3 N^+ (CH3)2 O^-] | – | 16.6 | –
O=C(NCCC[N+]1([O-])CCOCC1)C(F)(C(F)(F)F)C(F)(F)C(F)(F)C(F)(F)C(F)(F)C(F)(F)C(F)(F)C(F)(F)F (stereo not drawn) [Example E9] | – | – | low solub.
O=C(NCCOC(=O)C(F)(C(F)(F)F)C(F)(F)C(F)(F)C(F)(F)C(F)(F)C(F)(F)C(F)(F)C(F)(F)F)c1cc[n+]([O-])cc1 (stereo not drawn) [Example E10] | 400 | 14.5 | –
O=C(NCCOC(=O)C(F)(C(F)(F)F)C(F)(F)C(F)(F)C(F)(F)C(F)(F)C(F)(F)C(F)(F)F)c1cc[n+]([O-])cc1 (stereo not drawn) [Example E11] | 1000 | 15.5 | –
O=C(OCCc1cccc[n+]1[O-])C(F)(C(F)(F)F)C(F)(F)C(F)(F)C(F)(F)C(F)(F)C(F)(F)C(F)(F)F (stereo not drawn) [Example E12] | 8000 | 18.3 | –
O=C(OCCc1cccc[n+]1[O-])C(F)(C(F)(F)F)C(F)(F)C(F)(F)C(F)(F)C(F)(F)C(F)(F)C(F)(F)C(F)(F)F (stereo not drawn) [Example E13] | 6000 | 15.0 | –
C[n+]1ccc(C(=O)NCCOC(=O)C(F)(C(F)(F)F)C(F)(F)C(F)(F)C(F)(F)C(F)(F)C(F)(F)C(F)(F)C(F)(F)F)cc1 (stereo not drawn) [Example F1] | 500 | 15.0 | –
C[n+]1ccc(C(=O)NCCOC(=O)C(F)(C(F)(F)F)C(F)(F)C(F)(F)C(F)(F)C(F)(F)C(F)(F)C(F)(F)F)cc1 (stereo not drawn) [Example F2] | 30 | 15.5 | –
C[N+](C)(CCO)CCCNC(=O)C(F)(C(F)(F)F)C(F)(F)C(F)(F)C(F)(F)C(F)(F)C(F)(F)F (stereo not drawn) [Example F3] | 1000 | 17.0 | –
C[N+](C)(CCO)CCCNC(=O)C(F)(C(F)(F)F)C(F)(F)C(F)(F)C(F)(F)C(F)(F)C(F)(F)C(F)(F)C(F)(F)F (stereo not drawn) [Example F4] | 300 | 19.0 | –
O=C(NCCC[N+]1(CCO)CCOCC1)C(F)(C(F)(F)F)C(F)(F)C(F)(F)C(F)(F)C(F)(F)C(F)(F)C(F)(F)C(F)(F)F (stereo not drawn) [Example F5] | 1000 | 20.8 | –
CN(C)CCCN(CCCN(C)C)C(=O)C(F)(C(F)(F)F)C(F)(F)C(F)(F)C(F)(F)C(F)(F)C(F)(F)C(F)(F)C(F)(F)F (stereo not drawn) [Example F9, C7 F15 CF(CF3)CON[C3 H6 N^+ (CH3)2 H]2 2[^- OOCCH3]] | 1000 | 22.0 | –
C[N+](C)(CCCNC(=O)C(F)(C(F)(F)F)C(F)(F)C(F)(F)C(F)(F)C(F)(F)C(F)(F)C(F)(F)C(F)(F)F)CCC(=O)[O-] (stereo not drawn) [Example K1, C7 F15 CF(CF3)CONH(CH2)3 N^+ (CH3)2 C2 H4 COO^-] | – | 16.6 | –
O=C([O-])CC[N+]1(CCCNC(=O)C(F)(C(F)(F)F)C(F)(F)C(F)(F)C(F)(F)C(F)(F)C(F)(F)C(F)(F)C(F)(F)F)CCOCC1 (stereo not drawn) [Example K3] | 1000 | 19.2 | –
C[N+](C)(CCCN(CCC[N+](C)(C)CCC(=O)[O-])C(=O)C(F)(C(F)(F)F)C(F)(F)C(F)(F)C(F)(F)C(F)(F)C(F)(F)C(F)(F)C(F)(F)F)CCC(=O)[O-] (stereo not drawn) [Example K4] | 100 | 23.6 | –
